Experimental data from PMC10215404, “Effect of Indole-Containing Pyrazino[2,1-b]quinazoline-3,6-diones in the Virulence of Resistant Bacteria” (Antibiotics, 2023).
≈ marks a conversion by molar mass, not a printed value. Where “and” joins values, the source holds several entries; their conditions need not be identical. Equal entries are not always repeated.

Key:
phytopathogenic fungi = test system: phytopathogenic fungi; design: method as in PMID 22409377; settings: several phytopathogenic fungi; cited from earlier work
[1] = test system: NIH/3T3 mouse fibroblast cell line; assay: Cytotoxicity assay (MTT); format: cell-based; settings: NIH3T3, 24 h
Method: The effects of increasing concentrations of compounds on cell growth were tested in 96-well flat-bottomed microtiter plates. The compounds were diluted in a volume of 100 μL of medium. Afterwards, 1 × 10^4 cells in 100 μL of medium were added to each well, with the exception of the medium control. In the case of NIH/3T3 cells, the compounds were added after seeding the cells at 37 °C overnight. The plates were incubated at 37 °C for 24 h; after the incubation period, 20 μL of MTT solution (from a 5 mg/mL stock) was added to each well. After 4 h of incubation at 37 °C, 100 μL of SDS solution (10% in 0.01 M HCl) was added to each well and the plates were incubated at 37 °C overnight. Cell growth was determined by measuring the optical density (OD) at 540 nm (ref. 630 nm) with a Multiscan EX ELISA reader. Inhibition of cell growth was determined as IC50 values, defined as the inhibitory dose that reduced the growth of the cells exposed to the tested compounds by 50%. IC50 values and the SD of triplicate experiments were calculated by using GraphPad Prism software version 5.00 for Windows with a nonlinear regression curve fit (GraphPad Software, San Diego, CA, USA; www.graphpad.com, accessed on 14 July 2022). Doxorubicin (from a 2 mg/mL stock solution, Teva Pharmaceuticals) was used as the positive control.

E. coli AG100A = assay: Real-time ethidium bromide accumulation assay (efflux pump inhibition); settings: minute 60
E. coli AG100 [2] = assay: as above; settings: minute 60
S. aureus 66/1 (MRSA) = assay: MIC determination, broth microdilution; format: cell-based; settings: Staphylococcus aureus
From the text: (§1) Both reference and resistant strains used in this work were employed by our group for the screening of different families of compounds, such as xanthones and thioxanthones.

E. faecalis B3/101 (VRE) = assay: MIC determination, broth microdilution; format: cell-based; settings: Enterococcus faecalis
From the text: as §1

E. faecalis PFi/2 = assay: MIC determination, broth microdilution; format: cell-based; settings: Enterococcus faecalis
From the text: as §1

S. aureus ATCC 29213 = assay: MIC determination, broth microdilution; format: cell-based; settings: Staphylococcus aureus
From the text: as §1

S. aureus MRSA 272123 = assay: MIC determination, broth microdilution; format: cell-based; settings: Staphylococcus aureus
From the text: as §1

E. faecalis ATCC 29212 = assay: MIC determination, broth microdilution; format: cell-based; settings: Enterococcus faecalis, ATCC29212
From the text: as §1

E. faecalis PSi/107 = assay: MIC determination, broth microdilution; format: cell-based; settings: Enterococcus faecalis
From the text: as §1

S. aureus 272123 = assay: Real-time ethidium bromide accumulation assay (efflux pump inhibition); settings: minute 60
E. faecalis B3/101 = assay: Antibiotic potentiation with vancomycin, broth microdilution
E. coli AG100 [3] = assay: Biofilm formation, crystal violet method; format: cell-based, Escherichia coli; settings: 50 μM
Method: The antibiofilm effect of the tested compounds was evaluated using the crystal violet method on E. coli AG100, E. coli AG100A, and MRSA 272123. […] CCCP was used as a positive control.
The biofilm-forming ability of the S. aureus strains was studied in 96-well microtiter plates using TSB broth in the presence of compounds. The biofilm-forming ability of the E. coli strains was studied in 96-well microtiter plates using LB broth in the presence of the compounds. […] The final volume was 200 μL in each well. The positive control was CCCP at 50 µM. Plates were incubated for 48 h at 30 °C with gentle shaking at 100 rpm. After the incubation period, the medium was removed and the plate was washed with water to remove unattached cells. A total of 200 μL CV (0.1% [v/v]) was added to each wells and incubated for 15 min at room temperature. CV was discarded from the wells and the plate was washed with water again. Then, 200 μL of 70% ethanol was added to each well and the biofilm formation was determined by measuring the OD at 600 nm using a Multiscan EX ELISA plate reader (Thermo Labsystems, Cheshire, WA, USA). The antibiofilm effect of the compounds was expressed as the percentage (%) decrease in biofilm formation.

E. coli SA/2 = test system: E. coli SA/2; design: method as in PMID 34203998; settings: cited from earlier work
Enterococcus faecalis = settings: E. faecalis B3/101; cited from earlier work

SMILES: C[C@H]1NC(=O)[C@@H](Cc2c[nH]c3ccccc23)n2c1nc1ccccc1c2=O [fumiquinazoline G]
- MIC (phytopathogenic fungi): 12.5 to 25 µg/mL

SMILES: COc1cccc2c1C(=O)c1c(O)c3c(c(O)c1C2=O)C[C@@](O)(C(=O)CO)C[C@@H]3O[C@H]1C[C@H](N)[C@H](O)[C@H](C)O1 [DOXO, Doxorubicin, reference compound]
- IC50 [1]: 3.72 ± 0.15 µM

SMILES: CC(C)C[C@@H]1NC(=O)[C@@H](Cc2c[nH]c3ccccc23)n2c1nc1cc(F)ccc1c2=O [Compound 12b, (1S,4R)-4-((1H-indol-3-yl)methyl)-9-fluoro-1-isobutyl-1,2-dihydro-6H-pyrazino[2,1-b]quinazoline-3,6(4H)-dione]
- RFI ± SD (E. coli AG100A; compound at 100 μM): 0.77 ± 0.17
- IC50 [1]: 58 ± 1.58 µM
- RFI ± SD (E. coli AG100 [2]; compound at 50 μM): −0.07 ± 0.06
- RFI ± SD (E. coli AG100 [2]; compound at 100 μM): 1.47 ± 0.12
- MIC (S. aureus 66/1 (MRSA)): 77 µM and 32 µg/mL
- MIC (E. faecalis B3/101 (VRE)): 38 µM and 16 µg/mL
- MIC (E. faecalis PFi/2): > 100 µM
- MIC (S. aureus ATCC 29213; ATCC29213): 77 µM
- MIC (S. aureus ATCC 29213; ATCC29213, value in parentheses): 32 µg/mL
- MIC (S. aureus MRSA 272123): 100 µM and 41.8 µg/mL
- MIC (E. faecalis ATCC 29212): > 100 µM
- MIC (E. faecalis PSi/107): > 100 µM
- RFI ± SD (S. aureus 272123; compound at 50 μM): 0.96 ± 0.07

SMILES: Cc1ccc2nc3n(c(=O)c2c1)[C@H](Cc1c[nH]c2ccccc12)C(=O)N[C@H]3C(C)C [Compound 13c]
- RFI ± SD (E. coli AG100A; compound at 50 μM): 0.13 ± 0.05
- RFI ± SD (E. coli AG100 [2]; compound at 50 μM): 0.17 ± 0.02
- MIC (S. aureus MRSA 272123): 100 µM and 40 µg/mL
- RFI ± SD (S. aureus 272123; compound at 50 μM): 0.94 ± 0.04

SMILES: CC(C)C[C@@H]1NC(=O)[C@@H](Cc2c[nH]c3ccccc23)n2c1nc1ccc(F)cc1c2=O [Compound 12a, (1S,4R)-4-((1H-indol-3-yl)methyl)-8-fluoro-1-isobutyl-1,2-dihydro-6H-pyrazino[2,1-b]quinazoline-3,6(4H)-dione]
- MIC of vancomycin in combination with the compound (E. faecalis B3/101; E. faecalis B3/101, compound at 16 µg/mL): 256 µg/mL
- RFI ± SD (E. coli AG100A; compound at 100 μM): 0.59 ± 0.03
- antibiofilm effect (in words) (E. coli AG100 [3]): reduced the amount of biofilm
- IC50 [1]: 52.2 ± 0.75 µM
- RFI ± SD (E. coli AG100 [2]; compound at 50 μM): −0.17 ± 0.02
- RFI ± SD (E. coli AG100 [2]; compound at 100 μM): 2.45 ± 0.26
- MIC (S. aureus 66/1 (MRSA)): 77 µM and 32 µg/mL
- MIC (E. faecalis B3/101 (VRE)): 77 µM and 32 µg/mL
- MIC (E. faecalis PFi/2): > 100 µM
- MIC (S. aureus ATCC 29213; ATCC29213): > 100 µM
- MIC (S. aureus MRSA 272123): > 100 µM
- MIC (E. faecalis ATCC 29212): > 100 µM
- MIC (E. faecalis PSi/107): > 100 µM
- RFI ± SD (S. aureus 272123; compound at 50 μM): 0.63 ± 0.04
- RFI ± SD (S. aureus 272123; compound at 100 μM): 1.03 ± 0.02

SMILES: CO/N=C(\C(=O)N[C@@H]1C(=O)N2C(C(=O)O)=C(COC(C)=O)CS[C@H]12)c1csc(N)n1 [CTX, cefotaxime]
- MIC (E. coli SA/2): 512 µg/mL (≈ 1120 µM)

SMILES: COC(=O)[C@H]1[C@H]2C[C@@H]3c4[nH]c5cc(OC)ccc5c4CCN3C[C@H]2C[C@@H](OC(=O)c2cc(OC)c(OC)c(OC)c2)[C@@H]1OC [RES, reserpine, reference compound]
- RFI ± SD (S. aureus 272123; compound at 25 μM): 0.68 ± 0.05

SMILES: CN[C@H](CC(C)C)C(=O)N[C@H]1C(=O)N[C@@H](CC(N)=O)C(=O)N[C@H]2C(=O)N[C@H]3C(=O)N[C@H](C(=O)N[C@H](C(=O)O)c4cc(O)cc(O)c4-c4cc3ccc4O)[C@H](O)c3ccc(c(Cl)c3)Oc3cc2cc(c3O[C@@H]2O[C@H](CO)[C@@H](O)[C@H](O)[C@H]2O[C@H]2C[C@](C)(N)[C@H](O)[C@H](C)O2)Oc2ccc(cc2Cl)[C@H]1O [vancomycin, reference compound]
- MIC (E. faecalis B3/101; Enterococcus faecalis, B3/101, read-out: MIC of vancomycin alone obtained in this study): 516 µg/mL
- MIC (Enterococcus faecalis): 1024 µg/mL (≈ 707 µM)
